Test results as given in patent US6995143B2, “Macrolides with antibacterial activity” (Basilea Pharmaceutica AG, priority 2002, dated 2006).
Converted amounts (≈) assume the structure as drawn.

Key:
Assay type in all cases: cell-based
[1] = tested on: Staphylococcus aureus ATCC 29213; test: MIC, standard microdilution technique
In short: (§1)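 Susceptibility testing used the NCCLS fifth-edition approved standard for aerobic organisms (M7-A5).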

[2] = tested on: Staphylococcus aureus 745; test: MIC, standard microdilution technique
In short: as §1

[3] = tested on: Escherichia coli ATCC 25922; test: MIC, standard microdilution technique
In short: as §1

[4] = tested on: Streptococcus pneumoniae l/l; test: MIC, standard microdilution technique
In short: as §1

[5] = tested on: Streptococcus pneumoniae ¼; test: MIC, standard microdilution technique
In short: as §1

[6] = tested on: Staphylococcus aureus 1086; test: MIC, standard microdilution technique
In short: as §1

[7] = tested on: Streptococcus pneumoniae SL199T; test: MIC, standard microdilution technique
In short: as §1

[8] = tested on: Streptococcus pneumoniae 12288; test: MIC, standard microdilution technique
In short: as §1

[9] = tested on: Haemophilus influenzae B1501; test: MIC, standard agar dilution method using HTM medium
In short: (§2)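 The reported MIC comes from dilution testing done to NCCLS guidance M7-A5. Organism: Haemophilus influenzae.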

[10] = tested on: Haemophilus influenzae 12214; test: as above
In short: as §2

[11] = tested on: Haemophilus influenzae QK50; test: as above
In short: as §2

[12] = tested on: Haemophilus influenzae QK12/87; test: as above
In short: as §2

Row | SMILES | minimum inhibitory concentration (MIC), Strain A [1] | minimum inhibitory concentration (MIC), Strain C [2] | minimum inhibitory concentration (MIC), Strain D [3] | minimum inhibitory concentration (MIC), Strain E [4] | minimum inhibitory concentration (MIC), Strain F [5] | minimum inhibitory concentration (MIC), Strain B [6] | minimum inhibitory concentration (MIC), Strain G [7] | minimum inhibitory concentration (MIC), Strain H [8] | minimum inhibitory concentration (MIC), Strain M [9] | minimum inhibitory concentration (MIC), Strain K [10] | minimum inhibitory concentration (MIC), Strain L [11] | minimum inhibitory concentration (MIC), Strain I [12]
1 | CC[C@H]1OC(=O)[C@@](C)(F)C(=O)[C@H](C)[C@@H](O[C@@H]2O[C@H](C)C[C@H](N(C)C)[C@H]2O)[C@](C)(OC)C[C@@H](C)C(=O)[C@H](C)[C@H]2[C@@H](S(=O)(=O)CCCn3cc(-c4ccccc4)cn3)C(=O)O[C@@]21C [Example 11] | 0.125 µg/mL (≈ 0.142 µM) | >32 µg/mL | >32 µg/mL | <=0.06 μg/ml | 0.25 µg/mL (≈ 0.285 µM) | <=0.06 μg/ml | 4 µg/mL (≈ 4.56 µM) | 16 µg/mL (≈ 18.2 µM) | 4 µg/mL (≈ 4.56 µM) | 8 µg/mL (≈ 9.11 µM) | 4 µg/mL (≈ 4.56 µM) | 8 µg/mL (≈ 9.11 µM)
2 | CC[C@H]1OC(=O)[C@H](C)C(=O)[C@H](C)[C@@H](O[C@@H]2O[C@H](C)C[C@H](N(C)C)[C@H]2O)[C@](C)(OC)C[C@@H](C)C(=O)[C@H](C)[C@H]2[C@@H](SCC(=O)c3ccc(N(CC)CC)cc3)C(=O)O[C@@]21C [Example 17] | 16 µg/mL (≈ 19.2 µM) | >32 µg/mL | >32 µg/mL | 1 µg/mL (≈ 1.2 µM) | >32 µg/mL | 8 µg/mL (≈ 9.6 µM) | >32 µg/mL | >32 µg/mL | >32 µg/mL | >32 µg/mL | >32 µg/mL | >32 µg/mL
3 | CC[C@H]1OC(=O)[C@H](C)C(=O)[C@H](C)[C@@H](O[C@@H]2O[C@H](C)C[C@H](N(C)C)[C@H]2O)[C@](C)(OC)C[C@@H](C)C(=O)[C@H](C)[C@H]2[C@@H](SCC(=O)N3CCc4ccccc43)C(=O)O[C@@]21C [Example 18] | 0.25 µg/mL (≈ 0.311 µM) | >32 µg/mL | >32 µg/mL | <=0.06 μg/ml | 2 µg/mL (≈ 2.49 µM) | 0.25 µg/mL (≈ 0.311 µM) | 16 µg/mL (≈ 19.9 µM) | >32 µg/mL | 8 µg/mL (≈ 9.96 µM) | 8 µg/mL (≈ 9.96 µM) | 8 µg/mL (≈ 9.96 µM) | 8 µg/mL (≈ 9.96 µM)
4 | CC[C@H]1OC(=O)[C@H](C)C(=O)[C@H](C)[C@@H](O[C@@H]2O[C@H](C)C[C@H](N(C)C)[C@H]2O)[C@](C)(OC)C[C@@H](C)C(=O)[C@H](C)[C@H]2[C@@H](SCCS(=O)(=O)NCc3ccccc3)C(=O)O[C@@]21C [Example 24] | 2 µg/mL (≈ 2.38 µM) | >32 µg/mL | >32 µg/mL | <=0.06 μg/ml | >32 µg/mL | 1 µg/mL (≈ 1.19 µM) | 32 µg/mL (≈ 38 µM) | >32 µg/mL | 32 µg/mL (≈ 38 µM) | >32 µg/mL | >32 µg/mL | 32 µg/mL (≈ 38 µM)
5 | CC[C@H]1OC(=O)[C@H](C)C(=O)[C@H](C)[C@@H](O[C@@H]2O[C@H](C)C[C@H](N(C)C)[C@H]2O)[C@](C)(OC)C[C@@H](C)C(=O)[C@H](C)[C@H]2[C@@H](SCCNS(=O)(=O)c3cccc4c(N(C)C)cccc34)C(=O)O[C@@]21C [Example 28] | 1 µg/mL (≈ 1.09 µM) | >32 µg/mL | >32 µg/mL | <=0.06 μg/ml | 32 µg/mL (≈ 34.8 µM) | 1 µg/mL (≈ 1.09 µM) | 16 µg/mL (≈ 17.4 µM) | >32 µg/mL | >32 µg/mL | >32 µg/mL | 32 µg/mL (≈ 34.8 µM) | 32 µg/mL (≈ 34.8 µM)
6 | CC[C@H]1OC(=O)[C@H](C)C(=O)[C@H](C)[C@@H](O[C@@H]2O[C@H](C)C[C@H](N(C)C)[C@H]2O)[C@](C)(OC)C[C@@H](C)C(=O)[C@H](C)[C@H]2[C@@H](SCCNS(=O)(=O)c3cccc4cccnc34)C(=O)O[C@@]21C [Example 29] | <=0.06 μg/ml | >32 µg/mL | >32 µg/mL | <=0.06 μg/ml | >32 µg/mL | <=0.06 μg/ml | 2 µg/mL (≈ 2.28 µM) | >32 µg/mL | 8 µg/mL (≈ 9.11 µM) | 8 µg/mL (≈ 9.11 µM) | 8 µg/mL (≈ 9.11 µM) | 8 µg/mL (≈ 9.11 µM)
7 | CC[C@H]1OC(=O)[C@H](C)C(=O)[C@H](C)[C@@H](O[C@@H]2O[C@H](C)C[C@H](N(C)C)[C@H]2O)[C@](C)(OC)C[C@@H](C)C(=O)[C@H](C)[C@H]2[C@@H](SCC(=O)NCc3ccc4c(c3)OCO4)C(=O)O[C@@]21C [Example 30] | 0.125 µg/mL (≈ 0.15 µM) | >32 µg/mL | >32 µg/mL | <=0.06 μg/ml | 32 µg/mL (≈ 38.3 µM) | <=0.06 μg/ml | 16 µg/mL (≈ 19.2 µM) | >32 µg/mL | 8 µg/mL (≈ 9.58 µM) | 16 µg/mL (≈ 19.2 µM) | 16 µg/mL (≈ 19.2 µM) | 16 µg/mL (≈ 19.2 µM)
8 | CC[C@H]1OC(=O)[C@H](C)C(=O)[C@H](C)[C@@H](O[C@@H]2O[C@H](C)C[C@H](N(C)C)[C@H]2O)[C@](C)(OC)C[C@@H](C)C(=O)[C@H](C)[C@H]2[C@@H](SCC(=O)NCc3ccco3)C(=O)O[C@@]21C [Example 31] | 0.5 µg/mL (≈ 0.64 µM) | >32 µg/mL | >32 µg/mL | <=0.06 μg/ml | >32 µg/mL | 0.25 µg/mL (≈ 0.32 µM) | 32 µg/mL (≈ 41 µM) | >32 µg/mL | 8 µg/mL (≈ 10.2 µM) | 8 µg/mL (≈ 10.2 µM) | 8 µg/mL (≈ 10.2 µM) | 8 µg/mL (≈ 10.2 µM)
9 | CC[C@H]1OC(=O)[C@H](C)C(=O)[C@H](C)[C@@H](O[C@@H]2O[C@H](C)C[C@H](N(C)C)[C@H]2O)[C@](C)(OC)C[C@@H](C)C(=O)[C@H](C)[C@H]2[C@@H](SCC(=O)Nc3cc(C)on3)C(=O)O[C@@]21C [Example 33] | 0.5 µg/mL (≈ 0.639 µM) | >32 µg/mL | >32 µg/mL | <=0.06 μg/ml | >32 µg/mL | 0.5 µg/mL (≈ 0.639 µM) | 32 µg/mL (≈ 40.9 µM) | >32 µg/mL | 8 µg/mL (≈ 10.2 µM) | 8 µg/mL (≈ 10.2 µM) | 8 µg/mL (≈ 10.2 µM) | 16 µg/mL (≈ 20.5 µM)
10 | CC[C@H]1OC(=O)[C@H](C)C(=O)[C@H](C)[C@@H](O[C@@H]2O[C@H](C)C[C@H](N(C)C)[C@H]2O)[C@](C)(OC)C[C@@H](C)C(=O)[C@H](C)[C@H]2[C@@H](SCC(=O)NCc3nc4ccccc4s3)C(=O)O[C@@]21C [Example 34] | 0.25 µg/mL (≈ 0.295 µM) | >32 µg/mL | >32 µg/mL | <=0.06 μg/ml | 8 µg/mL (≈ 9.43 µM) | 0.5 µg/mL (≈ 0.59 µM) | >32 µg/mL | >32 µg/mL | 32 µg/mL (≈ 37.7 µM) | >32 µg/mL | >32 µg/mL | 32 µg/mL (≈ 37.7 µM)
